SMILES strings stand for the structures. Where two headings read alike, the source gives them in different places.

The target of data set [1] is T1, [V390I/Y410E/E274V]-CfEcR (Choristoneura fumiferana, UniProt O77240).
T1 construct: assay construct b835
Format: cell-based. The note with it: 3T3 Cells; for RMFI (relative maximum fold induction): relative to GS-E ligand. The procedure, abridged:
(§1)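 NIH3T3 cells were transiently co-transfected with GAL4-DBD fused to CfEcR DEF domains (wild-type or V390I/Y410E/E274V), VP16-AD fused to chimeric human/Locusta RXR, and a GAL4-response luciferase reporter. Ligand was given at 8 doses, 0.01–33 µM, 0.33% DMSO, luciferase read at 48 h. EC50 came from fold induction over DMSO via three-parameter logistic fit; Relative Max FI was taken versus GS™-E ligand.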

Data set [2] addresses wild-type Choristoneura fumiferana EcR (D, E and F domains) (Choristoneura fumiferana, UniProt O77240). Type of data set: cell-based. The note with it: WT-CtEcR, 3T3 Cells; for RMFI (relative maximum fold induction): relative to GS-E ligand. The procedure, abridged: as §1

Compound `CCC[C@@H](N(NC(=O)c1cccc(OC)c1)C(=O)c1cc(C)cc(C)c1)C(C)(C)C` [Example 9, (R)-3,5-Dimethyl-benzoic acid N-(1-tert-butyl-butyl)-N′-(3-methoxy-benzoyl)-hydrazide] yielded a melting point of 110 to 111 °C. Also, in data set [1] (R), the 50% effective concentration (EC50) turned out to be 1.4 nM and the “RMFI (relative maximum fold induction)” value is reported as 0.70. Moreover, in data set [2] (R), the EC50 came to 101 nM and the “RMFI (relative maximum fold induction)” value was determined as 0.81.

`CCC[C@@H](N(NC(=O)c1ccc(C)cc1)C(=O)c1cc(C)cc(C)c1)C(C)(C)C` [Example 11, (R)-3,5-Dimethyl-benzoic acid N-(1-tert-butyl-butyl)-N′-(4-methyl-benzoyl)-hydrazide] yielded a melting point of 60 to 62 °C. Also, in data set [1] (R), the half-maximal effective concentration (EC50) is ~1 nM and the “RMFI (relative maximum fold induction)” value was 0.90. Also, in data set [2] (R), the concentration giving a half-maximal response (EC50) was ~20 nM and the “RMFI (relative maximum fold induction)” value is 0.74.

The compound `CCC[C@@H](N(NC(=O)c1ccccc1Cl)C(=O)c1cc(C)cc(C)c1)C(C)(C)C` [Example 6, (R)-3,5-Dimethyl-benzoic acid N-(1-tert-butyl-butyl)-N′-(2-chloro-benzoyl)-hydrazide] came in with a melting point of 138 to 140 °C. Moreover, in data set [1] (R), a half-maximal effect (EC50) was put at 0.63 nM and the “RMFI (relative maximum fold induction)” value worked out at 1.01. For the same compound, in data set [2] (R), the concentration giving a half-maximal response (EC50) is ~20 nM and the “RMFI (relative maximum fold induction)” value was determined as 0.88.

`CCC[C@@H](N(NC(=O)c1cc(F)cc(F)c1)C(=O)c1cc(C)cc(C)c1)C(C)(C)C` [Example 18, (R)-3,5-Dimethyl-benzoic acid N-(1-tert-butyl-butyl)-N′-(3,5-difluoro-benzoyl)-hydrazide] came in with a melting point of 192 to 194 °C. In data set [1] (R), the EC50 was ~10 nM and the “RMFI (relative maximum fold induction)” value turned out to be 0.79. For the same compound, in data set [2] (R), a half-maximal effect (EC50) was put at 141 nM and the “RMFI (relative maximum fold induction)” value was found to be 0.52.

As for `CCC[C@@H](N(NC(=O)c1c(Cl)cccc1Cl)C(=O)c1cc(C)cc(C)c1)C(C)(C)C` [Example 16], the melting point fell in the range of 185 to 187 °C. For the same compound, in data set [1] (R), a half-maximal effect (EC50) was put at 51.2 nM and the “RMFI (relative maximum fold induction)” value amounted to 0.83. Further, in data set [2] (R), the EC50 is ~300 nM and the “RMFI (relative maximum fold induction)” value is 0.53.

The compound `C=CC[C@H](N(NC(=O)OCc1ccccc1)C(=O)c1cc(C)cc(C)c1)C(C)(C)C` [Example 31.4, (S)—N′-(1-tert-butyl-but-3-enyl)-N′-(3,5-dimethyl-benzoyl)-hydrazine carboxylic acid benzyl ester] yielded a melting point of 150 to 151.5 °C. Further, the EC50 in data set [1] (S) is > 10000 nM. Further, the EC50 in data set [2] (S) was > 10000 nM.

Compound `CCC[C@@H](N(NC(=O)c1ccccc1F)C(=O)c1cc(C)cc(C)c1)C(C)(C)C` [Example 5, (R)-3,5-Dimethyl-bcnzoic acid N-(1-tert-butyl-butyl)-N′-(2-fluoro-benzoyl)-hydrazide] yielded a melting point of 114 to 116 °C. In data set [1] (R), the half-maximal effective concentration (EC50) was ~0.8 nM and the “RMFI (relative maximum fold induction)” value turned out to be 1.16. Besides, in data set [2] (R), the EC50 is ~40 nM and the “RMFI (relative maximum fold induction)” value is listed as 0.68.

`CCC[C@@H](N(NC(=O)c1cccc2ccccc12)C(=O)c1cc(C)cc(C)c1)C(C)(C)C` [Example 23, (R)-3,5-Dimethyl-benzoic acid N-(1-tert-butyl-butyl)-N′-(naphthalene-1-carbonyl)-hydrazide] gave a melting point of 173 to 174 °C. In data set [1] (R), the EC50 was ~10 nM and the “RMFI (relative maximum fold induction)” value is 0.73. Moreover, in data set [2] (R), the EC50 turned out to be 111 nM and the “RMFI (relative maximum fold induction)” value is 0.69.

In the case of `CCC[C@@H](N(NC(=O)c1ccccc1C)C(=O)c1cc(C)cc(C)c1)C(C)(C)C` [Example 3, (R)-3,5-Dimethyl-benzoic acid N-(1-tert-butyl-butyl)-N′-(2-methyl-benzoyl)-hydrazide], the melting point lay within 137 to 138 °C. Besides, in data set [1] (R), the EC50 came out at 1.1 nM and the “RMFI (relative maximum fold induction)” value worked out at 0.69. In data set [2] (R), the midpoint of the response, the EC50, lay at 90 nM and the “RMFI (relative maximum fold induction)” value was found to be 0.75.

`CCC[C@@H](N(NC(=O)c1cccc(C)c1)C(=O)c1cc(C)cc(C)c1)C(C)(C)C` [Example 8, (R)-3,5-Dimethyl-benzoic acid N-(1-tert-butyl-butyl)-N′-(3-methyl-benzoyl)-hydrazide] gave a melting point of 158 to 159 °C. Moreover, in data set [1] (R), the 50% effective concentration (EC50) amounted to 1.2 nM and the “RMFI (relative maximum fold induction)” value worked out at 0.92. In data set [2] (R), the EC50 is ~30 nM and the “RMFI (relative maximum fold induction)” value is given as 0.86.

Turning to `CCC[C@@H](N(NC(=O)c1ccc(OC)c(OC)c1)C(=O)c1cc(C)cc(C)c1)C(C)(C)C` [Example 17, (R)-3,5-Dimethyl-benzoic acid N-(1-tert-butyl-butyl)-N′-(3,4-dimethoxy-benzoyl)-hydrazide], the melting point is 121 to 123 °C. Also, in data set [1] (R), the 50% effective concentration (EC50) was ~300 nM and the “RMFI (relative maximum fold induction)” value stood at 0.53. Besides, in data set [2] (R), the concentration giving a half-maximal response (EC50) was ~4000 nM and the “RMFI (relative maximum fold induction)” value is on record as 0.27.

`CCC[C@@H](N(NC(=O)c1ccc2c(c1CC)OCCO2)C(=O)c1cc(C)cc(C)c1)C(C)(C)C` [Example 22, (R)-3,5-Dimethyl-benzoic acid N-(1-tert-butyl-butyl)-N′-(5-ethyl 2,3-dihydro-benzo[1,4]dioxine-6-carbonyl)-hydrazide]: the melting point is 128 to 129 °C. For the same compound, in data set [1] (R), it took 0.064 nM to reach a half-maximal effect (EC50) and the “RMFI (relative maximum fold induction)” value worked out at 0.77. Besides, in data set [2] (R), the EC50 amounted to 0.266 nM and the “RMFI (relative maximum fold induction)” value is reported as 0.78.

As for `CCC[C@@H](N(NC(=O)c1ccc2c(c1C)OCCO2)C(=O)c1cc(C)cc(C)c1)C(C)(C)C` [Example 21, (R)-3,5-Dimethyl-benzoic acid N-(1-tert-butyl-butyl)-N′-(5-methyl-2,3-dihydro-benzo[1,4]dioxine-6-carbonyl)-hydrazide], the melting point was 70 °C. Also, in data set [1] (R), the 50% effective concentration (EC50) was ~0.04 nM and the “RMFI (relative maximum fold induction)” value is 1.14. Besides, in data set [2] (R), the EC50 turned out to be 0.304 nM and the “RMFI (relative maximum fold induction)” value was 0.87.

In the case of `CCC[C@@H](N(NC(=O)c1ccc(CC)cc1)C(=O)c1cc(C)cc(C)c1)C(C)(C)C` [Example 12, (R)-3,5-Dimethyl-benzoic acid N-(1-tert-butyl-butyl)-N′-(4-ethyl-benzoyl)-hydrazide], the melting point was 111 to 112 °C. In addition, in data set [1] (R), the EC50 was determined as 0.56 nM and the “RMFI (relative maximum fold induction)” value turned out to be 0.82. In data set [2] (R), the EC50 stood at 23.6 nM and the “RMFI (relative maximum fold induction)” value is 0.78.

Turning to `CCC[C@@H](N(NC(=O)c1ccccc1)C(=O)c1cc(C)cc(C)c1)C(C)(C)C` [Example 2, (R)-3,5-Dimethyl-benzoic acid N′-benzoyl-N-(1-tert-butyl-butyl)-hydrazide], the melting point is 66 to 68 °C. For the same compound, in data set [1] (R), the EC50 is 2.2 nM and the “RMFI (relative maximum fold induction)” value is 0.91. In data set [2] (R), the EC50 was ~30 nM and the “RMFI (relative maximum fold induction)” value turned out to be 0.74.

`CCC[C@@H](N(NC(=O)c1cccc(Cl)c1)C(=O)c1cc(C)cc(C)c1)C(C)(C)C` [Example 10, (R)-3,5-Dimethyl-benzoic acid N-(1-tert-butyl-butyl)-N′-(3-chloro-benzoyl)-hydrazide] had a melting point of 163 to 164 °C. In data set [1] (R), the EC50 was ~3 nM and the “RMFI (relative maximum fold induction)” value was found to be 0.76. In data set [2] (R), a half-maximal effect (EC50) was put at 94.5 nM and the “RMFI (relative maximum fold induction)” value is recorded as 0.87.

The compound `CCC[C@@H](N(NC(=O)c1ccc(OC)cc1)C(=O)c1cc(C)cc(C)c1)C(C)(C)C` [Example 13, (R)-3,5-Dimethyl-benzoic acid N-(1-tert-butyl-butyl)-N′-(4-methoxy-benzoyl)-hydrazide] registered a melting point of 65 to 67 °C. In data set [1] (R), the EC50 was determined as 1.4 nM and the “RMFI (relative maximum fold induction)” value stood at 0.68. In addition, in data set [2] (R), the midpoint of the response, the EC50, lay at 42.3 nM and the “RMFI (relative maximum fold induction)” value stood at 0.73.

`CCC[C@@H](N(NC(=O)c1ccc(Cl)cc1)C(=O)c1cc(C)cc(C)c1)C(C)(C)C` [Example 14, (R)-3,5-Dimethyl-benzoic acid N-(1-tert-butyl-butyl)-N′-(4-chloro-benzoyl)-hydrazide] displayed a melting point of 87 to 89 °C. In data set [1] (R), the concentration for a half-maximal effect (EC50) was determined as 51 nM and the “RMFI (relative maximum fold induction)” value is on record as 0.74. In addition, in data set [2] (R), the EC50 was determined as 140 nM and the “RMFI (relative maximum fold induction)” value was 0.74.

`CCC[C@@H](N(NC(=O)c1cccc(OC)c1C)C(=O)c1cc(C)cc(C)c1)C(C)(C)C` [Example 29, (R)-3,5-Dimethyl-benzoic acid N-(1-tert-butyl-butyl)-N′-(3-methoxy-2-methyl-benzoyl)-hydrazide] displayed a melting point of 141 to 143 °C. Also, in data set [1] (R), the concentration giving a half-maximal response (EC50) worked out at 0.078 nM and the “RMFI (relative maximum fold induction)” value is listed as 1.05. In data set [2] (R), the half-maximal effective concentration (EC50) is ~1 nM and the “RMFI (relative maximum fold induction)” value came out at 1.08.

`CCC[C@@H](N(NC(=O)c1c(F)cccc1F)C(=O)c1cc(C)cc(C)c1)C(C)(C)C` [Example 15, (R)-3,5-Dimethyl-benzoic acid N-(1-tert-butyl-butyl)-N′-(2,6-difluoro-benzoyl)-hydrazide]: the melting point was 180 to 182 °C. Moreover, in data set [1] (R), the midpoint of the response, the EC50, lay at 0.54 nM and the “RMFI (relative maximum fold induction)” value is listed as 0.79. Besides, in data set [2] (R), the EC50 came out at 66.2 nM and the “RMFI (relative maximum fold induction)” value came out at 0.82.

Broadly, the EC50 is the concentration needed to bring the measured effect to its halfway point. Read a low EC50 as higher potency in that assay. The melting point is the temperature of the solid-liquid transition.

The values above are taken from US20200270225A1, “Chiral Diacylhydrazine Ligands for Modulating the Expression of Exogenous Genes via an Ecdysone Receptor Complex” (Intrexon Corporation, priority 2007, published 2020).
